Results reported in patent publication US20110280862A1, “GEP AND DRUG TRANSPORTER REGULATION, CANCER THERAPY AND PROGNOSIS” (THE UNIVERSITY OF HONG KONG, priority 2010, published 2011).
In brackets after ≈: the same amount, converted by molar mass. Like-named read-outs stand apart in the source and are kept apart here.

Key:
Type in all cases: cell-based, Human
Hep3B cells [1] = test: MTT assay, drug IC50, parental cells
Description: (§1) Human liver cancer cell lines, Hep3B and HepG2, were purchased from American Type Culture Collection (Manassas, Va.). Culture method has been previously described, for example by Ho J C, et al. Hepatology 2008; 47: 1524-1532 and Cheung S T, et al. Clin Cancer Res 2004; 10: 7629-7636. Stable transfectants for GEP overexpression and suppression have also been described. For chemoresistant populations, the Hep3B cells were plated out and selected under various chemotherapeutic agents of various concentrations at 10-fold dilution for 30 days. The highest dose that still had viable cells over the extended selection period was used and the cells expanded for further selection. The one-step selected cells were then plated out again and selected under escalating doses of the respective drug in a 2-fold manner for another 30 days. The two-step selection process could select a population of cells more resistant to chemotherapeutic agents. The cells selected for resistance to doxorubicin were referred to as doxorubicin resistant cells. […] The drug IC50 value was determined by MTT assay. […] Apoptosis was determined by Annexin V-FITC (AV-FLI) and propidium iodide (PI-FL2) staining using flow cytometry. […] For doxorubicin uptake assays, cells were incubated with or without doxorubicin for 24 hours, and doxorubicin content (FL2) was analyzed by flow cytometry. […]

[2] = test system: cisplatin resistant cells; test: MTT assay, drug IC50, cisplatin resistant cells
Description: as §1

Hep3B cells [3] = test: Doxorubicin uptake assay by flow cytometry; conditions: doxorubicin 0.5 μg/ml, 24 hours, control or with ABCB5 suppression by siRNA
Description: (§2) Human liver cancer cell lines, Hep3B and HepG2, were purchased from American Type Culture Collection (Manassas, Va.). Culture method has been previously described, for example by Ho J C, et al. Hepatology 2008; 47: 1524-1532 and Cheung S T, et al. Clin Cancer Res 2004; 10: 7629-7636. Stable transfectants for GEP overexpression and suppression have also been described. For chemoresistant populations, the Hep3B cells were plated out and selected under various chemotherapeutic agents of various concentrations at 10-fold dilution for 30 days. The highest dose that still had viable cells over the extended selection period was used and the cells expanded for further selection. The one-step selected cells were then plated out again and selected under escalating doses of the respective drug in a 2-fold manner for another 30 days. The two-step selection process could select a population of cells more resistant to chemotherapeutic agents. The cells selected for resistance to doxorubicin were referred to as doxorubicin resistant cells. Similarly, the cells selected under cisplatin were referred to as cisplatin resistant cells. The drug IC50 value was determined by MTT assay. For apoptosis assays, cells were incubated with or without chemotherapeutic agents for 24 to 48 hours. Apoptosis was determined by Annexin V-FITC (AV-FLI) and propidium iodide (PI-FL2) staining using flow cytometry. The total apoptotic population included the early apoptotic cells (high MFI of AV but low PI) plus the late apoptotic cells (high MFI of both AV and PI) of the scatter plot. […] For doxorubicin uptake assays, cells were incubated with or without doxorubicin for 24 hours, and doxorubicin content (FL2) was analyzed by flow cytometry. Pilot studies had examined treatment time-points 0, 1, 3, 6 and 24 hours, and the latter three time-points had similar data profiles. […] There was a time-dependent effect, and thus the data charts presented the data of the 24-hour treatment in comparison with the baseline data. […]

[4] = test system: GEP overexpression transfectants; test: Doxorubicin uptake assay by flow cytometry; conditions: doxorubicin 0.5 μg/ml, 24 hours, control or with ABCB5 suppression by siRNA
Description: as §2

[5] = test system: doxorubicin resistant cells; test: Doxorubicin uptake assay by flow cytometry; conditions: doxorubicin 0.5 μg/ml, 24 hours, control or with ABCB5 suppression by siRNA
Description: as §2

[6] = test system: doxorubicin resistant cells; test: MTT assay, drug IC50, doxorubicin resistant cells
Description: as §1

Hep3B cells [7] = test: Apoptosis assay, Annexin V/PI flow cytometry; conditions: doxorubicin 0.5 μg/ml, 24 hours, control or with ABCB5 suppression by siRNA
Description: as §2

[8] = test system: GEP overexpression transfectants; test: Apoptosis assay, Annexin V/PI flow cytometry; conditions: doxorubicin 0.5 μg/ml, 24 hours, control or with ABCB5 suppression by siRNA
Description: as §2

[9] = test system: doxorubicin resistant cells; test: Apoptosis assay, Annexin V/PI flow cytometry; conditions: doxorubicin 0.5 μg/ml, 24 hours, control or with ABCB5 suppression by siRNA
Description: as §2

| SMILES | IC50 (Hep3B cells [1]) | increase in resistance compared to parental cells ([2]; cisplatin resistant cells vs parental cells) | IC50 ([2]; cisplatin resistant cells, MTT assay) | population with doxorubicin uptake (Hep3B cells [3]) | population with doxorubicin uptake [4] | population with doxorubicin uptake [5] | IC50 ([6]; Homo sapiens, doxorubicin resistant cells, MTT assay) | increase in resistance compared to parental cells ([6]; doxorubicin resistant cells vs parental cells) | IC50 (Hep3B cells [1]; Homo sapiens, Hep3B, read-out: IC50) | net increase in apoptotic populations (Hep3B cells [7]) | net increase in apoptotic populations [8] | net increase in apoptotic populations [9] |
| --- | --- | --- | --- | --- | --- | --- | --- | --- | --- | --- | --- | --- |
| N.N.[Cl][Pt][Cl] [cisplatin] | 0.84 µg/mL | more than 10 folds | 8.53 µg/mL | – | – | – | – | – | – | – | – | – |
| COc1cccc2c1C(=O)c1c(O)c3c(c(O)c1C2=O)C[C@@](O)(C(=O)CO)C[C@@H]3O[C@H]1C[C@H](N)[C@H](O)[C@H](C)O1 [doxorubicin] | – | – | – | 76.4% | 55.4% | 31.1% | 1.78 µg/mL (≈ 3.27 µM) | more than 16 folds | 0.11 µg/mL (≈ 0.202 µM) | 12.5% | 11.3% | 7.7% |
